Publication PMC5733478, “A Non-imaging High Throughput Approach to Chemical Library Screening at the Unmodified Adenosine-A3 Receptor in Living Cells” (Frontiers in Pharmacology, 2017)
Where a name gives a salt, the structure may show the parent alone.

What follows are molecules tested against T1, human A3AR (Homo sapiens, UniProt P0DMS8) (assay: LOPAC library primary screen: single concentration (10 μM) inhibition of 25 nM CA200645 binding, PHERAstar FS). Details: not given.
T1 construct: expressed in transfected cells
T1 sequence (P0DMS8 1-318): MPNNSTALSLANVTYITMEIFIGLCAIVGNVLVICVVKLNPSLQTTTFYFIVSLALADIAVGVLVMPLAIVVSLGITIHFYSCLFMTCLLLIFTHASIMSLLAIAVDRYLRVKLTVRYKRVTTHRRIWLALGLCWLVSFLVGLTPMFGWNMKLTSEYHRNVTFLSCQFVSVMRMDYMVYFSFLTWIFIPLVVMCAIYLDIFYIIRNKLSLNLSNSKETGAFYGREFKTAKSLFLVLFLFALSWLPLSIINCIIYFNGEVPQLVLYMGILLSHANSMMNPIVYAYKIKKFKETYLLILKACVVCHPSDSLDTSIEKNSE

| SMILES | % 25 nM CA200645 binding | % Total CA200645 binding |
| --- | --- | --- |
| Nc1nc2c(cnn2CCc2ccccc2)c2nc(-c3ccco3)nn12 [SCH 58261, reference compound] | 52.5 ± 9.7% | 52.2 ± 5.4% |
| Cc1nc2c(OCc3ccccc3)cccn2c1CC#N [SCH-28080] | 97.5 ± 14.8% | – |
| Br.CN=c1nc(-c2ccccc2)n(-c2ccccc2)s1 [SCH-202676 hydrobromide] | 83.4 ± 13.1% | – |
| NC(=O)c1ccc2[nH]ccc2c1 [SD-169] | 96.7 ± 5.5% | – |
| CCN(CC)CCOC(=O)c1cc(Cl)c(N)cc1OC.Cl [SDZ-205,557 hydrochloride] | 87.0 ± 9.3% | – |
| Cc1ccc(O)c(N=Nc2ccccc2)n1 [SIB 1757] | 98.5 ± 4.5% | – |
| Cc1cccc(/C=C/c2ccccc2)n1 [SIB 1893] | 88.4 ± 9.6% | – |
| CCOC(=O)C(C)Oc1cccc2c(=O)n(CC(=O)Nc3ccc4c(c3)OCCO4)ccc12 (stereo not drawn) [SID7969543] | 94.8 ± 24.3% | – |
| Br.Cc1cccc(C2CN(C)CCc3c2cc(O)c(O)c3Cl)c1 (stereo not drawn) [SKF 83959 hydrobromide] | 97.9 ± 6.2% | – |
| CN1CCc2cccc(Cl)c2CC1 [SKF 86466] | 103.0 ± 12.5% | – |
| O=C(O)/C=C\C(=O)O.O=C(O)/C=C\C(=O)O.c1cc(CN2CCCCC2)cc(OCCCNc2nc3ccccc3s2)c1 [SKF 95282 dimaleate] | 120.1 ± 40.0% | – |
| CCCC(C(=O)OCCN(CC)CC)(c1ccccc1)c1ccccc1.Cl [SKF-525A hydrochloride] | 95.3 ± 9.0% | – |
| Br.CN1Cc2sccc2C(c2ccc(O)c(O)c2)C1 (stereo not drawn) [SKF-89145 hydrobromide] | 97.3 ± 9.6% | – |
| C=CCNc1ncnc2ccc(Br)cc12 [SMER28] | 86.4 ± 8.7% | – |
| C=CCN1C[C@H](C)N([C@H](c2ccc(C(=O)N(CC)CC)cc2)c2cccc(OC)c2)C[C@H]1C [SNC80] | 94.8 ± 9.3% | – |
| Oc1c2ccccc2c2c3c(cccc13)N=N2 [SP600125] | 41.0 ± 10.4% | – |
| Nc1ncnc2c1ncn2C1CCCO1 (stereo not drawn) [SQ 22536] | 102.7 ± 4.9% | – |
| CCc1ccccc1OC[C@@H](O)CN[C@H]1CCCc2ccccc21.O=C(O)C(=O)O [SR 59230A oxalate] | 94.8 ± 26.7% | – |
| CN(C)c1ccc(/C=C2\C(=O)Nc3ccccc32)cc1 [SU 4312] | 53.2 ± 16.7% | – |

| SMILES | % 25 nM CA200645 binding | % Total CA200645 binding |
| --- | --- | --- |
| OCc1cc(C(O)CNCCCCCCOCCCCc2ccccc2)ccc1O (stereo not drawn) [Salmeterol xinafoate] | 92.6 ± 8.3% | – |
| CCCCCCCCCC[Si](C)(C)CCC(=O)NC(Cc1ccc(C)cc1)c1ccccc1 (stereo not drawn) [Sandoz 58-035] | 99.6 ± 12.7% | – |
| C[n+]1cc2c3c(ccc2c2ccc4cc5c(cc4c21)OCO5)OCO3 [Sanguinarine chloride] | 38.9 ± 20.6% | – |
| CCN(CC)CCNC(=O)c1ccc(NS(C)(=O)=O)cc1.Cl.O [Sematilide monohydrochloride monohydrate] | 97.5 ± 2.4% | – |
| Cl.NNC(N)=O [Semicarbazide hydrochloride] | 98.7 ± 22.6% | – |
| C[C@H](O)C(=O)C1=Nc2c(nc(N)[nH]c2=O)NC1 [Sepiapterin] | 97.4 ± 20.7% | – |
| NCCc1c[nH]c2ccc(O)cc12 [Serotonin hydrochloride] | 95.8 ± 9.3% | – |
| CN[C@H]1CC[C@@H](c2ccc(Cl)c(Cl)c2)c2ccccc21 [Sertraline hydrochloride] | 101.1 ± 11.7% | – |
| CCCc1nn(C)c2c(=O)[nH]c(-c3cc(S(=O)(=O)N4CCN(C)CC4)ccc3OCC)nc12.O=C(O)CC(O)(CC(=O)O)C(=O)O [Sildenafil citrate salt] | 88.1 ± 8.0% | – |
| CC(C)(C)C(=O)Oc1ccc(S(=O)(=O)Nc2ccccc2C(=O)NCC(=O)[O-])cc1.[Na+] [Sivelestat sodium salt hydrate] | 96.6 ± 6.4% | – |
| CC(C)COC(=O)OCN1C(=O)CN(CCN2CC(=O)N(COC(=O)OCC(C)C)C(=O)C2)CC1=O [Sobuzoxane] | 111.5 ± 7.6% | – |
| NC(=O)C(=O)O [Sodium Oxamate] | 96.5 ± 14.4% | – |
| NCCCCNCCCN [Spermidine trihydrochloride] | 102.2 ± 19.0% | – |
| NCCCNCCCCNCCCN [Spermine tetrahydrochloride] | 105.8 ± 16.0% | – |
| O=C(CCCN1CCC2(CC1)C(=O)NCN2c1ccccc1)c1ccc(F)cc1 [Spiperone hydrochloride] | 85.1 ± 18.3% | – |
| CC(=O)S[C@@H]1CC2=CC(=O)CC[C@]2(C)[C@H]2CC[C@@]3(C)[C@@H](CC[C@@]34CCC(=O)O4)[C@H]12 [Spironolactone] | 94.5 ± 9.9% | – |
| O=[N+]([O-])c1ccc2c(c1)S(=O)(=O)C=C2 [Stattic] | 107.3 ± 19.6% | – |
| O=C1NCc2c1c1c3ccccc3[nH]c1c1[nH]c3ccccc3c21 [Staurosporine aglycone] | 81.9 ± 6.1% | – |
| C=C1C[C@@]23CC[C@H]4[C@@](C)(CCC[C@@]4(C)C(=O)O)[C@@H]2CC[C@]1(O)C3 [Steviol] | 95.9 ± 19.9% | – |

| SMILES | % 25 nM CA200645 binding | % Total CA200645 binding |
| --- | --- | --- |
| C=C1C[C@@]23CC[C@H]4[C@@](C)(CCC[C@@]4(C)C(=O)O[C@@H]4O[C@H](CO)[C@@H](O)[C@H](O)[C@H]4O)[C@@H]2CC[C@]1(O[C@@H]1O[C@H](CO)[C@@H](O)[C@H](O)[C@H]1O[C@@H]1O[C@H](CO)[C@@H](O)[C@H](O)[C@H]1O)C3 [Stevioside] | 92.4 ± 13.9% | – |
| C[N+](C)(C)CCOC(=O)CCC(=O)OCC[N+](C)(C)C [Succinylcholine chloride] | 98.6 ± 15.7% | – |
| CC1=C(CC(=O)O)c2cc(F)ccc2/C1=C\c1ccc(S(C)(=O)=O)cc1 [Sulindac sulfone] | 84.5 ± 13.2% | – |
| CCN(CC)CCNC(=O)c1c(C)[nH]c(/C=C2\C(=O)Nc3ccc(F)cc32)c1C [Sunitinib malate] | 97.4 ± 12.4% | – |
| CC(=O)/C=C1\C(=O)N(C)c2ccccc21 [Supercinnamaldehyde] | 98.9 ± 0.6% | – |
| Cc1ccc(C(=O)Nc2ccc(S(=O)(=O)[O-])c3cc(S(=O)(=O)[O-])cc(S(=O)(=O)[O-])c23)cc1NC(=O)c1cccc(NC(=O)Nc2cccc(C(=O)Nc3cc(C(=O)Nc4ccc(S(=O)(=O)[O-])c5cc(S(=O)(=O)[O-])cc(S(=O)(=O)[O-])c45)ccc3C)c2)c1.[Na+].[Na+].[Na+].[Na+].[Na+].[Na+] [Suramin sodium salt] | 93.4 ± 9.0% | – |
| O=C(Nc1ccncc1)c1cc([N+](=O)[O-])ccc1Cl [T0070907] | 110.9 ± 6.0% | – |
| Brc1c(Br)c(Br)c2n[nH]nc2c1Br [TBB] | 67.4 ± 13.4% | – |
| Brc1c(Br)c(Br)c2[nH]cnc2c1Br [TBBz] | 74.5 ± 15.0% | – |
| Clc1cnc(Oc2ccc(Oc3ncc(Cl)cc3Cl)cc2)c(Cl)c1 [TCPOBOP] | 93.7 ± 8.4% | – |
| CCN1/C(=C/C(C)=O)Sc2ccc(OC)cc21 [TG003] | 77.3 ± 17.0% | – |
| Cl.O=c1[nH]oc2c1CCNC2 [THIP hydrochloride] | 100.3 ± 3.4% | – |
| CCN(CC)CCCCCCCCOC(=O)c1cc(OC)c(OC)c(OC)c1.Cl [TMB-8 hydrochloride] | 95.0 ± 0.4% | – |
| CCCCCCC(=O)OC1CC(C)(C)NC(C)(C)C1.Cl [TMPH hydrochloride] | 95.1 ± 13.7% | – |
| O=[N+]([O-])c1ccc(CNc2nc(NCc3cccc(C(F)(F)F)c3)nc3nc[nH]c23)cc1 [TNP] | 61.8 ± 11.7% | – |
| CP(=O)(O)C1=CCNCC1 [TPMPA] | 99.7 ± 3.7% | – |
| C/C(=C\c1ccc(C(=O)O)cc1)c1ccc2c(c1)C(C)(C)CCC2(C)C [TTNPB] | 92.9 ± 11.5% | – |
| CC/C(=C(\c1ccccc1)c1ccc(OCCN(C)C)cc1)c1ccccc1 [Tamoxifen] | 83.1 ± 23.3% | – |

Same assay, conditions: % of control wells (1% DMSO and 25 nM CA200645); compounds at 10 µM; whole live cells expressing the A3AR; mean ± SD, three experiments in duplicate

| SMILES | % 25 nM CA200645 binding |
| --- | --- |
| COc1ccc(CCCOC(Cn2ccnc2)c2ccc(OC)cc2)cc1 (stereo not drawn) [SKF 96365] | 100.0 ± 16.7% |

Same assay, conditions: compounds tested at 10 µM; % of control wells (1% DMSO and 25 nM CA200645); […]; mean ± SD, three experiments in duplicate

| SMILES | % 25 nM CA200645 binding |
| --- | --- |
| Cl.O=C(O)C1CCCN(CCC=C(c2ccccc2)c2ccccc2)C1 (stereo not drawn) [SKF 89976A hydrochloride] | 95.9 ± 25.1% |

Same assay, conditions: compounds tested at 10 µM; % of control wells (1% DMSO and 25 nM CA200645); whole live cells expressing the A3AR; mean ± SD, three experiments in duplicate

| SMILES | % 25 nM CA200645 binding |
| --- | --- |
| O=C(O)c1ccccc1Nc1cccc(OCc2ccc3ccccc3n2)c1 [SR 2640] | 103.1 ± 17.1% |
| O=C1NC(=O)[C@@]2(CCOc3ccc(F)cc32)N1 [Sorbinil] | 96.4 ± 14.0% |
| O=C1NCN(c2ccccc2)C12CCN(CC1COc3ccccc3O1)CC2 (stereo not drawn) [Spiroxatrine] | 112.7 ± 3.0% |
| Nc1ccc(S(=O)(=O)Nc2ccnn2-c2ccccc2)cc1 [Sulfaphenazole] | 89.1 ± 34.9% |
